Literature values as cited in PMC9689602, “Evaluation of ^68Ga-Radiolabeled Peptides for HER2 PET Imaging” (Diagnostics, 2022).
Where two headings read alike, the source gives them in different places. One block for each compound: values may come before it.

What was measured:
[1] = system: mice; settings: up to 1 g/kg intravenous injection
Source text: One drawback for peptides is their susceptibility to degradation from proteases present within organisms. […] Phosphoramidon can be used as an aid to protect peptides from quick degradation when evaluating our peptides in vivo. […] We are using phosphoramidon as a to ...

[2] = molecular target: HER2
Experimental: Peptide imaging agents allow for quicker injection to imaging times along with a potential decrease in dose to the patient by using a shorter-lived radioisotope. Radiolabeled peptides are currently used in the clinic for the diagnosis of several cancer types. A widely used example is [^68Ga]DOTATATE (NETSPOT®) which was given FDA approval in 2016 and is used for imaging somatostatin receptor type 2 on neuroendocrine cancer with patient imaging 40 to 90 min after intravenous administration. Several HER2-targeting peptides have been reported which could have the potential to be ...

[3] = molecular target: KCCYSL peptide

Compound: CC(C)C[C@H](NP(=O)(O)O[C@@H]1O[C@@H](C)[C@H](O)[C@@H](O)[C@H]1O)C(=O)N[C@@H](Cc1c[nH]c2ccccc12)C(=O)O [phosphoramidon, Phosphoramidon]
- toxicity in mice [1]: low toxicity and no death

- Kd ([2]; highest affinity in OBOC library, read-out: affinity (Kd)): 0.0186 µM
Compound: DTFPYLGWWNPNEYRY

- Kd [3]: 30 µM
Compound: HER2 (from UniProt P04626)

Compound: KCCYSL
- Kd ([2]; binding to HER2, read-out: equilibrium dissociation constant): 30 µM
